Source: article PMC9303975 (Proceedings of the National Academy of Sciences of the …, 2022)
Blank lines part the entries; values can stand above or below the molecule they belong to. Bridges are numbered along the chain shown (N, C = ends). Where no end group is shown, it is not given here.

Tests used:
[1] = test system: PLA2R autoantibody (27 MN anti-PLA2R positive sera); experiment: BLI direct interaction assay: immobilized peptides with anti-PLA2R positive sera; format: binding, human; settings: BLI (Octet Red); 27 MN sera at 1/200; dissociation rate from Hill-1 plot; n = 3
Protocol: BLI experiments were conducted using an Octet Red (ForteBio). Octet CDL sensors (coated with a thin layer of carboxymethyl dextran) were activated by EDC/NHS, at the same concentration used for SPR, for 300 s with 1000 rpm agitation. […] Following immobilization, sensors were deactivated in 1 M ethanolamine for 300 s to prevent further immobilization of proteins to the samples sensors.
The association phase was measured for 450 s with 1000 rpm agitation. The dissociation phase for each sensor was subsequently measured by incubating the sensors into Hepes-sera buffer for 1200 s at 1000 rpm. Regeneration of the sensor was achieved by six successive washes in 10 mM NaOH for 15 s followed by 15 s in Milli-Q water. The immobilized sensor responses to anti-PLA2R IgG were calibrated against nonspecific binding of each immobilized sensor to Hepes-sera buffer.
The dissociation phase of each response was collected and plotted, and the dissociation rate was calculated (kd) as the 1/k value produced from a Hill-1 plot analysis. The average dissociation rate was calculated for each peptide sensor binding to the 27 MN patients’ sera. Dissociation rates with an R^2 value <0.9 or χ^2 value >3 were excluded from the data due to poor fitting.

[2] = test system: human anti-PLA2R antibody (MN anti-PLA2R IgG) binding to PLA2R-NC3; experiment: SPR inhibition assay: peptides block anti-PLA2R IgG binding to immobilized PLA2R-NC3; settings: SPR (ProteOn), 1 µM peptide, anti-PLA2R IgG 1/100 in Hepes buffer pH 7.2, maximal response, n = 3
Protocol: Real-time binding analysis was evaluated using an SPR instrument (ProteOn, BIO-RAD). ProteOn GLC sensor lanes were preactivated by injection of 18.75 mg/mL EDC (1-ethyl-3-(3-dimethylaminopropyl) carbodiimide) and 1.4 mg/mL NHS (N-hydroxysuccinimide, Sigma-Aldrich). Once activated, 20 μg/mL PLA2R-NC3 in 10 mM sodium acetate buffer (pH 4.5) (BIO-RAD) was injected onto sensor chip lanes for immobilization. Ethanolamine was injected to deactivate the sensors from further immobilization.
Subsequently, all AIPs were tested in triplicate using the same concentration. […] Hepes buffer was subsequently flown over, and the dissociation phase was measured for 400 s. The sensors were then regenerated with two successive injections (40 s) of 10 mM NaOH (sodium hydroxide). Each measured response of anti-PLA2R IgG with or without peptides to immobilized PLA2R-NC3 protein was calibrated against nonspecific binding of the sensor to Hepes buffer and Hepes buffer containing antibodies with or without peptides to a blank immobilized sensor. The maximal response was measured for all conditions of anti-PLA2R IgG and percentage inhibition of PLA2R autoantibody binding to PLA2R by AIPs calculated.

[3] = test system: PLA2R autoantibody from one MN patient serum; experiment: Peptide microarray binding detection (PEPperCHIP); settings: MN patient serum at 1:100, goat anti-human IgG DyLight 680
Source text: To probe the importance of the amino acids within the PLA2R epitope in human autoantibody recognition, we utilized a printed peptide microarray. This peptide laser printing technology allows the synthesis of peptides (between 15 and 20 amino acids in length) directly onto glass slides followed by single substitution scans, which involves the stepwise substitution of all amino acid positions of a given epitope with all 20 main amino acids (Fig. 1A). We first synthesized a stepped series of truncated peptides across the originally discovered 31mer epitope (at both N- and C-terminus end) in order to identify the minimum sequence retaining high-affinity binding. […] We have previously shown that the epitope peptide is a disulphide-bonded structure, and its reactivity to human anti-PLA2R is sensitive to reduction ([8]). […] The substitution scan of these two regions was performed by exchange of the native amino acids with all 20 main amino acids. […] To further investigate this, a second array (platform 3) combined both parts of the N-terminal region and the cyclic C-terminal region. […]
Peptide microarrays were generated and performed by PEPperPRINT (Heidelberg, Germany) ([31], [32]). […] Peptide spot intensity quantification and peptide annotation were executed with PepSlide Analyzer. […]

[4] = test system: PLA2R autoantibody; experiment: Autoantibody binding to Endo180 protein (western blot and dot blot, Fig. S2); set-up: species or system human; settings: western blot non reduced and reduced; dot blot under native condition
Protocol: To determine the contribution of the conformation of the epitope sequence, the binding of the autoantibody was tested against Endo180 protein, another member of the mannose receptor family with high structural homology of the PLA2R CysR domain (SI Appendix, Fig. S2).
Fig. S2: PLA2R autoantibodies incapable of binding to Endo180 potentially due to lack of surface cavity in the P28mer epitope region.
A) Sequences from the P28mer region in the mannose receptor family proteins were subjected to consensus mapping by weblogo. Residues conserved in all mannose receptor proteins are indicated with *. B) Western blot analysis of PLA2R and Endo180 under non reduced and reduced conditions using anti-His and human PLA2R autoantibody. C) Dot blot analysis of PLA2R and […]
PLA2R autoantibody under native condition. D) Comparison of the PLA2R, DEC -205 (5ao5) and Endo-180 (7jpt) structures and their overlays. The RSMD values generated were 3.184 Å RMSD for analysis between PLA2R and Endo180, 3.558 Å RMSD for DEC-205 and Endo180, where Endo180 was used as reference.
(1 picture or pasted object on this page, not shown here)

binding affinity of immobilized peptide to anti-PLA2R positive sera, relative to P28mer [1]: lower affinity than the P28mer
Molecule: SVLTLENCK [AIP2]

binding affinity of immobilized peptide to anti-PLA2R positive sera, relative to P28mer [1]: lower affinity than the P28mer | percentage inhibition of PLA2R autoantibody binding to PLA2R [2]: ~40%
Molecule: VIQSESLK [AIP1]

Molecule: CIQAGKSVLTLENCK (disulfide 1-14 (inferred)) [platform 2, microarray-printed cyclic region […] of P28mer, cyclized by disulphide]
autoantibody binding to printed peptide (fluorescence intensity) [3]: no significant binding

Molecule: KGIFVIQSESLKKC [platform 1, microarray-printed linear region […] of P28mer]
autoantibody binding to printed peptide (fluorescence intensity) [3]: no significant binding

B1: Endo180: mannose receptor family protein with high structural homology to the PLA2R CysR domain (protein, UniProt Q9UBG0 31-1479, looked up)
C-type mannose receptor 2: GAPGDAALPEPNVFLIFSHGLQGCLEAQGGQVRVTPACNTSLPAQRWKWVSRNRLFNLGTMQCLGTGWPGTNTTASLGMYECDREALNLRWHCRTLGDQLSLLLGARTSNISKPGTLERGDQTRSGQWRIYGSEEDLCALPYHEVYTIQGNSHGKPCTIPFKYDNQWFHGCTSTGREDGHLWCATTQDYGKDERWGFCPIKSNDCETFWDKDQLTDSCYQFNFQSTLSWREAWASCEQQGADLLSITEIHEQTYINGLLTGYSSTLWIGLNDLDTSGGWQWSDNSPLKYLNWESDQPDNPSEENCGVIRTESSGGWQNRDCSIALPYVCKKKPNATAEPTPPDRWANVKVECEPSWQPFQGHCYRLQAEKRSWQESKKACLRGGGDLVSIHSMAELEFITKQIKQEVEELWIGLNDLKLQMNFEWSDGSLVSFTHWHPFEPNNFRDSLEDCVTIWGPEGRWNDSPCNQSLPSICKKAGQLSQGAAEEDHGCRKGWTWHSPSCYWLGEDQVTYSEARRLCTDHGSQLVTITNRFEQAFVSSLIYNWEGEYFWTALQDLNSTGSFFWLSGDEVMYTHWNRDQPGYSRGGCVALATGSAMGLWEVKNCTSFRARYICRQSLGTPVTPELPGPDPTPSLTGSCPQGWASDTKLRYCYKVFSSERLQDKKSWVQAQGACQELGAQLLSLASYEEEHFVANMLNKIFGESEPEIHEQHWFWIGLNRRDPRGGQSWRWSDGVGFSYHNFDRSRHDDDDIRGCAVLDLASLQWVAMQCDTQLDWICKIPRGTDVREPDDSPQGRREWLRFQEAEYKFFEHHSTWAQAQRICTWFQAELTSVHSQAELDFLSHNLQKFSRAQEQHWWIGLHTSESDGRFRWTDGSIINFISWAPGKPRPVGKDKKCVYMTASREDWGDQRCLTALPYICKRSNVTKETQPPDLPTTALGGCPSDWIQFLNKCFQVQGQEPQSRVKWSEAQFSCEQQEAQLVTITNPLEQAFITASLPNVTFDLWIGLHASQRDFQWVEQEPLMYANWAPGEPSGPSPAPSGNKPTSCAVVLHSPSAHFTGRWDDRSCTEETHGFICQKGTDPSLSPSPAALPPAPGTELSYLNGTFRLLQKPLRWHDALLLCESRNASLAYVPDPYTQAFLTQAARGLRTPLWIGLAGEEGSRRYSWVSEEPLNYVGWQDGEPQQPGGCTYVDVDGAWRTTSCDTKLQGAVCGVSSGPPPPRRISYHGSCPQGLADSAWIPFREHCYSFHMELLLGHKEARQRCQRAGGAVLSILDEMENVFVWEHLQSYEGQSRGAWLGMNFNPKGGTLVWQDNTAVNYSNWGPPGLGPSMLSHNSCYWIQSNSGLWRPGACTNITMGVVCKLPRAEQSSFSPSALPENPAALVVVLMAVLLLLALLTAALILYRRRQSIERGAFEGARYSRSSSSPTEATEKNILVSDMEMNEQQE
interaction of the autoantibody with the protein [4]: No interaction was detected
